According to paper PMC9147645, “Food-Derived β-Carboline Alkaloids Ameliorate Lipid Droplet Accumulation in Human Hepatocytes” (Pharmaceuticals, 2022):
Like-named read-outs stand apart in the source and are kept apart here.

Experiments:
[1] = Cytotoxicity / lipocytotoxicity assay (CCK-8); type: cell-based; details: human; for IC50 at 24 h: HepG2, values given in the text, read-out: IC50 (cytotoxicity, cell viability)
Method: (§1) HepG2 cells were purchased from the American Type Culture Collection (ATCC) (Manassas, VA, USA). High-glucose DMEM containing 10% heat-inactivated FBS and 1% penicillin–streptomycin was maintained under a humidified atmosphere at 37 °C with 5% CO2, as indicated in the Supplementary Materials. HepG2 cells (1.5 × 10^4/well) in DMEM supplemented with 10% FBS were seeded into a 96-well plate. A cytotoxicity assay was performed according to the manufacturer’s protocol using CCK-8 (Dojindo Molecular Technologies), as indicated in the Supplementary Materials (Materials and Methods). […]
(§2) 2 1.2. Cytotoxicity assay […] HepG2 cells (1.5 × 10^4/well) in DMEM supplemented with 10% FBS were under reduced pressure, and H2O (25 ml) was added. Then the solution was seeded into a 96-well plate. The cytotoxicity assay was done using CCK-8 extracted with AcOEt after adjusted to 9–10 with aq. NaOH solution. The organic (Dojindo Molecular Technologies) according to the manufacturer's protocol. […]
(§3) Compounds 1 and 3. To a stirred soln. Compound 10 (218 mg, 1.00 mmol), 5- Technologies, Rockville, USA) according to the manufacturer ’sinstructions. Cell Acetoxymethylfurfural (1, 168 mg, 1.00 mmol) and Nano CuO (7.955 mg, 0.1 suspension (100 μl/well) was inoculated in a 96-well plate (Iwaki, Japan), and mmol) were added 6 ml of DMF. The mixture was stirred at 90℃ for 16 h. The pH once monolayers were observed, treatments were added (n = 3 per each of the aqueous solution was adjusted to 9–10 with aq NaOH solution after adding treatment). Cells were then pre-incubated with the treatments for 24 h before H O. After extracting the solution with AcOEt, the organic layer was washed with assay to determine cell viability.Absorbance was measured at 450 nm using a 2 plate reader (PerkinElmer-ARVO-MX-ID 10533234, Japan). […]
(§4) [5-(hydroxymethyl)-2-furanyl]-1H-pyrido[3,4-b]indole-3-carboxylic acid (2, CAS culture medium was removed from each dish, and cells were washed Registry Number 896466-77-6); flazine methyl ester acetate (3, CAS Registry and rinsed with 1× PBS. Cells were then fixed for 20 min in 10% formalin and Number 104537-95-3); flazin (4, CAS Registry Number 100041-05-2); washed twice using PBS. Then, Oil Red O dye was added to the dishes and incubated for 20 min. Finally, the dye was removed from each dish and cells 5

HepG2 cells [2] = details: 100 μM; cited from earlier work
[3] = system: nuclear factor erythroid 2-related factor 2 (Nrf2); details: hepatocytes; cited from earlier work
human HepG2 = system: human HepG2; parameters: method as in PMID 30103390; details: human HepG2, 180 μM; cited from earlier work
HepG2 cells [4] = assay: Lipid droplet accumulation inhibition (LDAI) assay, Oil Red O, oleic acid-loaded cells; type: cell-based, human; details: for Induction of LDs: HepG2
Method: LDAI assay: LDAI activity was determined using an Oil Red O assay with 24-well plates (n = 4 per treatment). Staining of LDs in cultured hepatocytes was performed according to the manufacturer’s instructions, based on the Oil Red O staining assay. Briefly, HepG2 cells (1.5 × 10^4/well) were supplemented with 10% FBS, cultured, seeded in 35-mm dishes, and treated with the tested samples after 24 h. Oil Red O, a fat-soluble dye, is widely used for staining neutral lipids in LDs, as described in the Supplementary Materials. […]
2 1.2. Cytotoxicity assay dropwise under ice-cooling. […]
Lipid droplet accumulation inhibition assay and Real-Ti me LDAI acid tryptophan (9) and compound 12 were subjected to acid conversion at 90 °C accumulation in acetic acid to obtain compound 2 (1H and 13C, see in Supporting Information). Lipid droplet accumulation inhibition (LDAI) activity was determined using an Synthesis of Compound 4. To a stirred soln . compound 3 in MeOH was added oilred assay in a 24-well plate according to the manufacturer ’sinstructions (n = 4 with NaOH (2 mol/L). Compound 4 was obtained after stirringthe mixture at 65℃ per each treatment). Real-time oleic induced-LD inhibition was performed by for 5 h. (1H and 13C, see Figures S10 and S11). We also prepared similar using a Nikkon microscope. Morphological analysis of HepG2 cells after compounds without any substituent at the C-1 position in the C-ring using a one- treatment with control(-OA) and (+OA) or compound at different concentrations pot Pictet–Spengler reaction (6-8). was determined by staining with AO/EB.
Synthetic b-carboline alkaloids (1-8): 1.4. Oil Red O Staining.
CAS Registry Number of all the series of synthetic b-carboline alkaloids (1-8) HepG2 cells were cultured and treated in 35 mm dishes, as described above. were subjected to biological evaluation: 1H-Pyrido[3,4-b]indole-3-carboxylic acid, Oil Red O dye was used for LD staining. Oil Red O was dissolved in isopropanol 1-[5-[(acetyloxy)methyl]-2-furanyl]-2,3,4,9-tetrahydro-, methyl ester, (1S-trans)- as 3 mg/mL and diluted with water so that isopropanol became 60%. Oil Red O (9CI) (1,CAS Registry Number 11 5 1 0 7-75-0;11 5 1 0 7-76-1);2,3,4,9-Tetrahydro-1-solutionwasfilteredbya0.4 μm pore syringe filter.For cellular staining, the […]

HepG2 cells [5] = assay: Cytotoxicity / lipocytotoxicity assay (CCK-8); type: cell-based; details: 0.25 mM oleic acid, 24 h, HepG2
Method: as §1, §2, §3, §4

[6] = HepG2 cells, HepG2, DMEM loaded with fatty acid (+OA), read-out: Lipocytotoxicity (LC50), concentration at which 50% of cells died
[7] = HepG2 cells, HepG2, DMEM without fatty acid (−OA), read-out: Cytotoxicity (CC50), concentration at which 50% of cells died
[8] = Homo sapiens, HepG2, 24 h, HepG2 + 0.25 mM oleic acid, vs untreated control (+OA)

| SMILES | CC50 at 24 h [1, 6] [µM] | CC50 at 24 h [1, 7] [µM] | inhibition at 400 µM (HepG2 cells [4]; [8]) [%] | other results |
| --- | --- | --- | --- | --- |
| O=C(O)C1Cc2c([nH]c3ccccc23)CN1 (stereo not drawn) [Compound 6, 1,2,3,4-Tetrahydro-β-carboline-3-carboxylic acid] | 520 | 505 |  |  |
| O=c1c(-c2ccc(O)cc2)coc2c([C@@H]3O[C@H](CO)[C@@H](O)[C@H](O)[C@H]3O)c(O)ccc12 [Puerarin] |  |  |  | Hepatic steatosis (HepG2 cells [2]): ameliorates hepatic steatosis |
| COc1c(O)cc(CO)cc1O [DHMBA, 3,5-dihydroxy-4-methoxybenzyl alcohol, reference compound] |  |  |  | Nrf2-dependent antioxidant action [3]: Nrf2-dependent antioxidant action |
| Oc1cc(O)c2cc(O)c(-c3cc(O)c(O)c(O)c3)[o+]c2c1 [Delphinidin] |  |  |  | Hepatic triglyceride accumulation (human HepG2): ameliorated hepatic triglyceride accumulation |
| COC(=O)c1cc2c(cn1)[nH]c1ccccc12 [Compound 7, methyl β-carboline-3-carboxylate] |  |  |  | CC50 at 24 h ([1]; HepG2, DMEM loaded with fatty acid (+OA), read-out: Lipocytotoxicity (LC50), concentration at which 50% of cells died): 498 µM; CC50 at 24 h ([1]; HepG2, DMEM without fatty acid (−OA), read-out: Cytotoxicity (CC50), concentration at which 50% of cells died): 390 µM; inhibition at 400 µM (HepG2 cells [4]; Homo sapiens, 24 h, HepG2 + 0.25 mM oleic acid, vs untreated control (+OA)): 25.4% |
| O=C(O)c1cc2c(cn1)[nH]c1ccccc12 [Compound 8, β-Carboline-3-carboxylic acid] | 530 | 549 | 81.8 |  |
| COC(=O)[C@@H]1Cc2c([nH]c3ccccc23)C(c2ccc(COC(C)=O)o2)N1 (stereo partly shown) [Compound 1, Methyl 1,2,3,4-Tetrahydro-1-(5-[(acetyloxy)methyl]-2-furanyl)-9H-pyrido [3,4-b]indole-3-carboxylic acid] | 442 | 488 | 63.2 | IC50 at 24 h ([1]; HepG2 cells): 488 µM |
| CCCCCCCC/C=C\CCCCCCCC(=O)O [oleic acid, reference compound] |  |  |  | Cell viability after oleic acid treatment (in words) (HepG2 cells [5]): no cytotoxicity; Induction of LDs (HepG2 cells [4]; 0.25 mM oleic acid, 24 h): 2.6 fold; Induction of LDs (HepG2 cells [4]; 0.5 mM oleic acid, 24 h): 2.8 fold |
| COC(=O)c1cc2c([nH]c3ccccc32)c(-c2ccc(COC(C)=O)o2)n1 [Compound 3, flazin methyl ester acetate] | 131 | 66.8 |  | IC50 at 24 h ([1]; HepG2 cells): 66.9 µM; inhibition at 50 µM (HepG2 cells [4]; Homo sapiens, HepG2, 24 h, 50 μM, HepG2 + 0.25 mM oleic acid, vs untreated control (+OA)): 26% |
| COC(=O)C1Cc2c([nH]c3ccccc23)CN1 (stereo not drawn) [Compound 5, methyl 1,2,3,4-tetrahydro-β-carboline-3-carboxylate] | 488 | 397 | 42 |  |
